Measurements taken from US20260308179A1, “NOVEL CRYSTALLINE FORM OF RISDIPLAM AND PROCESS FOR PREPARATION THEREOF” (HARMAN FINOCHEM LIMITED, priority 2023, published 2026).
≈ marks a conversion by molar mass, not a printed value. Like-named read-outs stand apart in the source and are kept apart here.

Legend:
[1] = Risdiplam solubility data; assay type: physicochemical
[2] = Storage stability of crystalline Form H by IR spectrum; assay type: physicochemical
Procedure: In yet another aspect, the crystalline Form H of Risdiplam is characterized by the IR spectrum at 834 cm^−1, 880 cm^−1, 926 cm^−1, 1210 cm^−1, 1227 cm^−1, 1674 cm^−1, 2824 cm^−1, 3283 cm^−1; as illustrated in FIGS. 2A and 2B. The IR spectrum of Risdiplam Form H was conducted after 6 months of storage.
In yet another embodiment, the crystalline Form H of Risdiplam is characterized by the IR spectrum at 834 cm^−1, 880 cm^−1, 926 cm^−1, 1210 cm^−1, 1227 cm^−1, 1674 cm^−1, 2824 cm^−1, 3283 cm^−1 as illustrated in FIGS. 2A and 2B. The IR spectrum of Risdiplam Form H illustrated in FIG. 2B was conducted after 6 months of storage.

With `Cc1cn2nc(-c3cc(=O)n4cc(N5CCNC6(CC6)C5)ccc4n3)cc(C)c2n1` [011/DS-C/V/118/032, 7-(4,7-Diazaspiro[2,5]octan-7-yl)-2-(2,8-dimethylimidazo[1,2-b]pyridazin-6-yl)-pyrido[1,2-a]pyrimidin-4-one] the solubility ([1]; ethanol, organic solvent or mixture, solvent: ethanol, read-out: Solubility in ethanol) was 1300 µg/mL (≈ 3240 µM) and the solubility ([1]; water, solvent: water, read-out: Solubility in water) was 3 µg/mL (≈ 7.47 µM).
For `Cc1cn2nc(-c3cc(=O)n4cc(N5CCNC6(CC6)C5)ccc4n3)cc(C)c2n1` [crystalline Form H of Risdiplam, 7-(4,7-diazaspiro[2.5]octan-7-yl)-2-(2,8-dimethylimidazo[1,2-b]pyridazin-6-yl)pyrido-4H-[1,2-a]pyrimidin-4-one], the Solubility in ethanol ([1]; solvent: ethanol, listed as 011/DS-C/IV/118/048) was 1400 µg/mL (≈ 3490 µM), the Solubility in water ([1]; solvent: water, listed as 011/DS-C/IV/118/048) was 6 µg/mL (≈ 14.9 µM) and the “change in the IR spectrum after storage (stability)” value ([2]; after 6 months of storage, IR spectrum, FIG. 2A and 2B) was “No substantial change in the IR spectrum was observed”. The stability period ([2]; illustrated by IR spectrum in FIG. 2) was “stable up to a period of 6 months”.
`Cc1cn2nc(-c3cc(=O)n4cc(N5CCNC6(CC6)C5)ccc4n3)cc(C)c2n1` [STD] gave a Solubility in ethanol ([1]; solvent: ethanol) of less than 1000 µg/mL and a Solubility in water ([1]; solvent: water) of less than 100 µg/mL.
